Several values for one entry are separate records, joined by “and”; a condition that tells them apart may be missing. Equal entries are not always repeated.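 Growth conditions: 96-well plates. Treatment: test compound, 48 hours, 5 concentrations. Analysis: linear interpolation between bracketing concentrations; unreached endpoints set to highest concentration. At the GI50, growth is halved. TGI is the concentration that stops growth completely.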
Columns and labels:
Experiment in all cases: NCI-60 cell line screen, 48 h
[1] = test system: LOX IMVI melanoma
[2] = test system: HCT-15 colon
[3] = test system: MOLT-4 leukemia
[4] = test system: HOP-92 NSCLC
[5] = test system: 786-0 renal
[6] = test system: IGROV1 ovarian
[7] = test system: UO-31 renal
[8] = test system: UACC-62 melanoma
[9] = test system: HL-60(TB) leukemia
[10] = test system: M14 melanoma

| SMILES | GI50 [1] | TGI [1] | GI50 [2] | TGI [2] | GI50 [3] | TGI [3] | GI50 [4] | TGI [4] | GI50 [5] | TGI [5] | GI50 [6] | TGI [6] | GI50 [7] | TGI [7] | GI50 [8] | TGI [8] | GI50 [9] | TGI [9] | GI50 [10] | TGI [10] |
| --- | --- | --- | --- | --- | --- | --- | --- | --- | --- | --- | --- | --- | --- | --- | --- | --- | --- | --- | --- | --- |
| Cc1ccccc1-n1c(/C=C\c2ccccn2)nc2ccccc2c1=O | 15 µM | 37 µM | 7.39 µM | 37.2 µM | 6.16 µM | 27.7 µM | 3.32 µM | 67.1 µM | 20.6 µM | 64.4 µM | 13.2 µM | 63.9 µM | 7.51 µM | > 100 µM | 14.2 µM | 45 µM | 6.12 µM | > 100 µM | 14.2 µM | 33.9 µM |
| COc1cc(-c2nc(SCC(=O)Nc3ccc(C(C)=O)cc3)[nH]c(=O)c2C#N)cc(OC)c1OC | 41.7 µM | > 100 µM | > 100 µM | > 100 µM | 36.4 µM | > 100 µM | 22.6 µM | > 100 µM | 41.7 µM | > 100 µM | 53.4 µM | > 100 µM | 36.6 µM | > 100 µM | 28 µM | > 100 µM | 35 µM | > 100 µM | 37.4 µM | > 100 µM |
| C=C1C(=O)O[C@H]2[C@H]1[C@H](OC(=O)/C(C)=C\C)C[C@]1(CO1)[C@@H]1[C@H](OC(C)=O)C=C(C)[C@]21O | – | 29 µM | – | 33.5 µM | – | 25.6 µM | – | 30.3 µM | – | 23.5 µM | – | 38.8 µM | – | 29.4 µM | – | 32.2 µM | – | 12.9 µM | – | 54.9 µM |
| O=C(CCc1ccccc1)On1nnc2ccccc2c1=O | – | > 100 µM | – | > 100 µM | – | > 100 µM | – | > 100 µM | – | > 100 µM | – | > 100 µM | – | > 100 µM | – | > 100 µM | – | > 100 µM | – | > 100 µM |
| Cc1c2ncccc2nc2[nH]c3ccc(OCCN(C)C)cc3c12 | 1.54 µM | 5.78 µM | 1.33 µM | 16.3 µM | 0.6 µM | 12.5 µM | 1.99 µM | 9.59 µM | 2.81 µM | 16.1 µM | 2.13 µM | 16.5 µM | 1.84 µM | 11.5 µM | 14.3 µM | 39.3 µM | 3.53 µM | 16.5 µM | 3.01 µM | 15.6 µM |
| O=C(CCCNC(=O)OCc1ccccc1)OCc1ccc2c(c1)C(=O)c1ccccc1C2=O | – | > 100 µM | – | > 100 µM | – | > 100 µM | – | > 91.3 µM | – | > 56.2 µM | – | 99 µM | – | > 100 µM | – | > 100 µM | – | > 100 µM | – | > 100 µM |
| COc1ccc(CCNCc2cccc(OC)c2OC)cc1OC | – | > 100 µM | – | > 100 µM | – | > 100 µM | – | > 100 µM | – | > 100 µM | – | > 100 µM | – | > 100 µM | – | > 100 µM | – | > 100 µM | – | > 100 µM |
| CC12CCc3ccccc3C1=Nc1ccccc12 (stereo not drawn) | – | > 100 µM | – | > 100 µM | – | 58.5 µM | – | 54 µM | – | > 100 µM | – | > 100 µM | – | > 100 µM | – | > 100 µM | – | 76.6 µM | – | > 100 µM |
| CCOC(=O)N1C/C(=C/c2ccc(OC)cc2)C(=O)/C(=C/c2ccc(OC)cc2)C1 | 0.979 µM | 2.84 µM | 1.64 µM | 4.91 µM | 3.99 µM | > 100 µM | 4.97 µM | > 56.3 µM | 1.79 µM | 3.4 µM | 2.44 µM | > 21.2 µM | 1.9 µM | 5.19 µM | 1.92 µM | 5.4 µM | 3.02 µM | > 25.4 µM | 2.11 µM | 5.2 µM |
| O=C1/C(=C/c2ccc([N+](=O)[O-])s2)Oc2ccccc21 | 0.434 µM | 1.64 µM | 0.246 µM | 0.688 µM | 0.654 µM | 3.23 µM | 0.557 µM | 2.29 µM | 2.42 µM | 6.29 µM | 0.839 µM | 2.45 µM | 0.323 µM | 2.13 µM | 0.667 µM | 1.94 µM | 0.96 µM | – | 1.17 µM | 3.57 µM |
| CC1CCC2C(C)C3C(CC4C5CC=C6CC(OC7OC(CO)C(O)C(OC8OC(CO)C(O)C(O)C8O)C7OC7OC(C)C(O)C(O)C7O)CCC6(C)C5CCC43C)N2C1 (stereo not drawn) | > 2.5 µg/mL | 29.7 µM and > 2.5 µg/mL | > 2.5 µg/mL | 33 µM and > 2.5 µg/mL | > 2.5 µg/mL | 60.9 µM and > 2.5 µg/mL | > 2.5 µg/mL | 33.6 µM and > 2.5 µg/mL | > 2.5 µg/mL | 20.4 µM and > 2.5 µg/mL | > 2.5 µg/mL | 26.2 µM and > 2.5 µg/mL | > 2.5 µg/mL | 14.5 µM and > 2.5 µg/mL | > 2.5 µg/mL | 27.7 µM and > 2.5 µg/mL | – | 25.4 µM | > 2.5 µg/mL | 9.84 µM and > 2.5 µg/mL |
| C#CCOc1ccc2ncnc(Nc3ccc(NC(=O)CCl)cc3)c2c1 | 1.5 µM | 3.43 µM | 2.96 µM | 19.2 µM | 3.19 µM | 17.7 µM | 12.2 µM | 27.9 µM | 4.36 µM | 16 µM | 3.15 µM | 10.9 µM | 8.45 µM | 22.2 µM | 8.97 µM | 27.4 µM | 5.91 µM | 25.2 µM | 9.4 µM | 27.7 µM |
| COc1ccc(/C(Cl)=C(\C=O)c2ccc(OC)c(OC)c2)cc1OC | – | > 100 µM | – | > 100 µM | – | > 100 µM | – | > 100 µM | – | > 100 µM | – | > 100 µM | – | > 100 µM | – | > 100 µM | – | > 100 µM | – | > 100 µM |
| O=C1C=CN(C2OC(CO)C(O)C2O)C(=O)C1 (stereo not drawn) | – | 625 µM and 788 µM | 54.6 µM | 625 µM and > 2500 µM | – | 476 µM | 13.6 µM and 66.2 µM | – | – | 1260 µM | 77 µM | 625 µM and > 2210 µM | 26.7 µM | 625 µM and > 2500 µM | 33.3 µM | 625 µM and > 1840 µM | 6.25 µM | 625 µM and > 2500 µM | – | > 2500 µM |
| COc1ccc(NC(=O)c2sc3nc(C)c(C(O)c4ccc(OC)cc4)cc3c2N)cc1 (stereo not drawn) | 1.4 µM | > 50 µM | 0.414 µM | > 50 µM | 2.17 µM | > 50 µM | 5.62 µM | > 50 µM | 3.35 µM | > 50 µM | 1.85 µM | > 50 µM | 2.85 µM | > 50 µM | 0.621 µM | > 50 µM | 1.23 µM | > 50 µM | 1 µM | > 50 µM |

Reference: PubChem BioAssay (NCI)
